Values quoted from earlier work as cited in patent publication US20120171125A1, “Methods for Enhancing the Cognitive Function” (UCB PHARMA, S.A., priority 2009, published 2012).

Legend:
epilepsy = settings: in vivo
cognitive function = settings: animals and humans
SV2A = SV2A (Homo sapiens, UniProt Q7L0J3)
Sequence of SV2A (Q7L0J3 whole entry, species assumed): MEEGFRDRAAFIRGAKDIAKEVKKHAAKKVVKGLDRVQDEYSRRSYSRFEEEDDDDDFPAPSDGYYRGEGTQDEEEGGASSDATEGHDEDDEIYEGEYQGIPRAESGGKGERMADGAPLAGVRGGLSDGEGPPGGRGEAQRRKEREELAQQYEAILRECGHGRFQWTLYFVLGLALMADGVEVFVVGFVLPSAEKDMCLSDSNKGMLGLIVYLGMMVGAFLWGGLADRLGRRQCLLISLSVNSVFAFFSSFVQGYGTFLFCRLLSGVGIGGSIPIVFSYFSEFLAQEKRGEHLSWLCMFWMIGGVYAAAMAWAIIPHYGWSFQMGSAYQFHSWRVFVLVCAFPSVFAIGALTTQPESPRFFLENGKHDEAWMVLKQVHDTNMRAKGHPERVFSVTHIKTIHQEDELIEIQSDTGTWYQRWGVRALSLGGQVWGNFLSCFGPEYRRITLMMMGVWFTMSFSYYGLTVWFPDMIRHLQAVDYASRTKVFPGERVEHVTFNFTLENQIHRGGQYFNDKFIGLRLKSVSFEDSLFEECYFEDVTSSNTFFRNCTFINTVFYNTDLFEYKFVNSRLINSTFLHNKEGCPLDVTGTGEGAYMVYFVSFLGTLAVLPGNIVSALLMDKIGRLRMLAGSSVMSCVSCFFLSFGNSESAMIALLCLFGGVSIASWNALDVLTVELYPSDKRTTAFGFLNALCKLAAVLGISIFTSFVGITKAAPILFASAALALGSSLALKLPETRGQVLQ

SMILES | antiepileptic activity (epilepsy) | impact on the cognitive function (cognitive function) | affinity / binding to SV2A (SV2A)
CC[C@H](C(N)=O)N1CCCC1=O [(R)-(+)-alpha-ethyl-2-oxo-1-pyrrolidine acetamide] | completely lacks activity |  | 
CC[C@@H](C(N)=O)N1CCCC1=O [levetiracetam, (S)-(−)-alpha-ethyl-2-oxo-1-pyrrolidine acetamide] |  | no impact on the cognitive function | 
CC[C@@H](C(N)=O)N1C[C@H](C=C(F)F)CC1=O [Seletracetam, (2S)-2-[(4S)-4-(2,2-difluorovinyl)-2-oxo-pyrrolidinyl]butanamide] | very potent antiepileptic activities |  | potent affinity to SV2A
NC(=O)CN1CCCC1=O [piracetam] |  |  | does not bind to SV2A
CCC[C@@H]1CC(=O)N([C@@H](CC)C(N)=O)C1 [brivaracetam, (2S)-2-[(4R)-2-oxo-4-propyl-pyrrolidin-1-yl]butanamide] | very potent antiepileptic activities |  | potent affinity to SV2A
